The kinase profiling compilation of Christmann-Franck et al. (2016)

Key:
Assay in all cases: KINOMEscan competition binding
Conditions in all cases: compound 10.0 µM
ZAP70 (human) = ZAP70 (human) (UniProt P43403)
[1] = target: JAK1 JH2 pseudokinase (human) (UniProt P23458)
RPS6KA1 KD1 (human) = RPS6KA1 KD1 (human) (UniProt Q15418)
CLK4 (human) = CLK4 (human) (UniProt Q9HAZ1)
EPHB2 (human) = EPHB2 (human) (UniProt P29323)
MAP4K4 (human) = MAP4K4 (human) (UniProt O95819)
CAMK1G (human) = CAMK1G (human) (UniProt Q96NX5)
NEK3 (human) = NEK3 (human) (UniProt P51956)
MAP4K2 (human) = MAP4K2 (human) (UniProt Q12851)
ACVR1 (human) = ACVR1 (human) (UniProt Q04771)
PRKACB (human) = PRKACB (human) (UniProt P22694)
CDKL3 (human) = CDKL3 (human) (UniProt Q8IVW4)
PI4KB (human) = PI4KB (human) (UniProt Q9UBF8)
ERBB4 (human) = ERBB4 (human) (UniProt Q15303)
RPS6KA4 KD2 (human) = RPS6KA4 KD2 (human) (UniProt O75676)
CSNK1D (human) = CSNK1D (human) (UniProt P48730)
MAP3K10 (human) = MAP3K10 (human) (UniProt Q02779)
CAMKK2 (human) = CAMKK2 (human) (UniProt Q96RR4)
PAK2 (human) = PAK2 (human) (UniProt Q13177)
ACVR2B (human) = ACVR2B (human) (UniProt Q13705)
STK24 (human) = STK24 (human) (UniProt Q9Y6E0)
MAPK9 (human) = MAPK9 (human) (UniProt P45984)
RIPK1 (human) = RIPK1 (human) (UniProt Q13546)
LTK (human) = LTK (human) (UniProt P29376)
MAP3K12 (human) = MAP3K12 (human) (UniProt Q12852)
MARK3 (human) = MARK3 (human) (UniProt P27448)
NEK4 (human) = NEK4 (human) (UniProt P51957)
STK33 (human) = STK33 (human) (UniProt Q9BYT3)
PAK3 (human) = PAK3 (human) (UniProt O75914)
CDKL2 (human) = CDKL2 (human) (UniProt Q92772)
PAK6 (human) = PAK6 (human) (UniProt Q9NQU5)
CHEK2 (human) = CHEK2 (human) (UniProt O96017)
MLTK (human) = MLTK (human) (UniProt Q9NYL2)
HCK (human) = HCK (human) (UniProt P08631)
PRKD1 (human) = PRKD1 (human) (UniProt Q15139)
STK4 (human) = STK4 (human) (UniProt Q13043)
IKBKE (human) = IKBKE (human) (UniProt Q14164)
IRAK3 (human) = IRAK3 (human) (UniProt Q9Y616)
MAPK13 (human) = MAPK13 (human) (UniProt O15264)
[2] = target: TYK2 JH1 catalytic (human) (UniProt P29597)

CAMKK2 (human), sequence (Q96RR4 whole entry, looked up): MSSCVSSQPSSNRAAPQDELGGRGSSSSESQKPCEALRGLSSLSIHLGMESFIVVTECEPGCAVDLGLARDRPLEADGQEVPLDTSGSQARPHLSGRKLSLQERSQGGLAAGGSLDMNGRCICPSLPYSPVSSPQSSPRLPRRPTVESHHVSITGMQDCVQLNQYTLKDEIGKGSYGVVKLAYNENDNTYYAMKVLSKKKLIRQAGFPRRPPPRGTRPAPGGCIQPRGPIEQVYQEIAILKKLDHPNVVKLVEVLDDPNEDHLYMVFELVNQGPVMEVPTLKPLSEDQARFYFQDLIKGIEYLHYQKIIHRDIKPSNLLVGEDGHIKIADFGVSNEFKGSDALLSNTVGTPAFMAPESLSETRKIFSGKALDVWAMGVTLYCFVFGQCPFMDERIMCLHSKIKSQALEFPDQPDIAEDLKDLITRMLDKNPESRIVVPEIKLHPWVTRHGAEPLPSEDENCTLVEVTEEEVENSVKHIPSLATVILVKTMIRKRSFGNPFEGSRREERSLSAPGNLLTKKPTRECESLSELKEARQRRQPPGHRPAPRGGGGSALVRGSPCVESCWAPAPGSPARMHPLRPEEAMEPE
IRAK3 (human), sequence (Q9Y616 whole entry, looked up): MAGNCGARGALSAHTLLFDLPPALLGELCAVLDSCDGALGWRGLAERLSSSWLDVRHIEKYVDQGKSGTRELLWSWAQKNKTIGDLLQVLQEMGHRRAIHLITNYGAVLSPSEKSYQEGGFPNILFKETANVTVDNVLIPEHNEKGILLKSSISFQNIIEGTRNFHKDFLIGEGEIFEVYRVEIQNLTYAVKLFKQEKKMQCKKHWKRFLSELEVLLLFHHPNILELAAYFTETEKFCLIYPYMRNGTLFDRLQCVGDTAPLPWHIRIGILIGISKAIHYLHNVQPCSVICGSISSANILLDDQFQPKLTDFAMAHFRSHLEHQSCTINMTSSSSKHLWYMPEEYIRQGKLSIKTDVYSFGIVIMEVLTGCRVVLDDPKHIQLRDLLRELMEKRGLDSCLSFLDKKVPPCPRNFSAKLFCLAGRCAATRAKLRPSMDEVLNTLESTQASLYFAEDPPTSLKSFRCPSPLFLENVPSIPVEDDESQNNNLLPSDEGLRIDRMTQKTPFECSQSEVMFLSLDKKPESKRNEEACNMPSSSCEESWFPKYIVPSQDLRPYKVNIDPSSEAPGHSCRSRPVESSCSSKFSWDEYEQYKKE
PAK6 (human), sequence (Q9NQU5 whole entry, looked up): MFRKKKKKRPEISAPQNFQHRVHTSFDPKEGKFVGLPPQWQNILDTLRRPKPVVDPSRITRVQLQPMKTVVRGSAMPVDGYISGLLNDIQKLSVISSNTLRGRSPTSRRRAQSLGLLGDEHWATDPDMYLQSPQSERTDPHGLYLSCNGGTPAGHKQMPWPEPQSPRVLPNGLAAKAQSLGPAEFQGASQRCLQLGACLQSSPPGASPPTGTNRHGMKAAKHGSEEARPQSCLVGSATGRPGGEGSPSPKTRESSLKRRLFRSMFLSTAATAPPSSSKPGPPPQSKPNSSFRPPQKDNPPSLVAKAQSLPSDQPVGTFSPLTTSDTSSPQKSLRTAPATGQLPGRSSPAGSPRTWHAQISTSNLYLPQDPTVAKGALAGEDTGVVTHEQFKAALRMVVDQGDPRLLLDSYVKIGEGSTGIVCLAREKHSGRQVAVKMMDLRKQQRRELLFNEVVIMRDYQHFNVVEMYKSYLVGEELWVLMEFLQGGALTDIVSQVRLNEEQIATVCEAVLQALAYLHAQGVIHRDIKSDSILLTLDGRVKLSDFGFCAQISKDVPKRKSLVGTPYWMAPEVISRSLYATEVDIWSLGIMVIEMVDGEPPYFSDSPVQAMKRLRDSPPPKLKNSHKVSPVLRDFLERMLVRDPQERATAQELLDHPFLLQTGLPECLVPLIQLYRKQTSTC
PI4KB (human), sequence (Q9UBF8 whole entry, looked up): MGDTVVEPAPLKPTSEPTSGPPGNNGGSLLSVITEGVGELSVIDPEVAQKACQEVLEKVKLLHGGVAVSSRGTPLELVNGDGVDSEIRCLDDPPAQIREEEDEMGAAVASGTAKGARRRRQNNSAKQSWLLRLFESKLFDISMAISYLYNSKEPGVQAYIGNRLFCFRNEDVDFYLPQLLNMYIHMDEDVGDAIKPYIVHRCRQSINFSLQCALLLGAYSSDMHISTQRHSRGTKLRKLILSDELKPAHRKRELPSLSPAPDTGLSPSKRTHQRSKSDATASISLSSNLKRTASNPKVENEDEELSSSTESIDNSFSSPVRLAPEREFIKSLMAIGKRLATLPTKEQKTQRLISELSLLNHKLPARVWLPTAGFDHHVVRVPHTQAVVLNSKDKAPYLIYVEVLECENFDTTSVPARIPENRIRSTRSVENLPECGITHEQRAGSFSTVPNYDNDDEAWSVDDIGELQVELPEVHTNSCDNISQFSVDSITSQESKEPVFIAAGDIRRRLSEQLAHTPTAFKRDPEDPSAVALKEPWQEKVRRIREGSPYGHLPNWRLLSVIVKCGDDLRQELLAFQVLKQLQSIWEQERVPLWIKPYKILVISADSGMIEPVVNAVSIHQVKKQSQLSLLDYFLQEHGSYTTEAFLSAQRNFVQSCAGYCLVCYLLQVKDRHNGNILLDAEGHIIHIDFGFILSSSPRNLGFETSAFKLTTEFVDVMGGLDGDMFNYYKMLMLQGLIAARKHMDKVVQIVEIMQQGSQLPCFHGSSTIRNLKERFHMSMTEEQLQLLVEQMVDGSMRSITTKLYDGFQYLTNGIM
MAP4K2 (human), sequence (Q12851 whole entry, looked up): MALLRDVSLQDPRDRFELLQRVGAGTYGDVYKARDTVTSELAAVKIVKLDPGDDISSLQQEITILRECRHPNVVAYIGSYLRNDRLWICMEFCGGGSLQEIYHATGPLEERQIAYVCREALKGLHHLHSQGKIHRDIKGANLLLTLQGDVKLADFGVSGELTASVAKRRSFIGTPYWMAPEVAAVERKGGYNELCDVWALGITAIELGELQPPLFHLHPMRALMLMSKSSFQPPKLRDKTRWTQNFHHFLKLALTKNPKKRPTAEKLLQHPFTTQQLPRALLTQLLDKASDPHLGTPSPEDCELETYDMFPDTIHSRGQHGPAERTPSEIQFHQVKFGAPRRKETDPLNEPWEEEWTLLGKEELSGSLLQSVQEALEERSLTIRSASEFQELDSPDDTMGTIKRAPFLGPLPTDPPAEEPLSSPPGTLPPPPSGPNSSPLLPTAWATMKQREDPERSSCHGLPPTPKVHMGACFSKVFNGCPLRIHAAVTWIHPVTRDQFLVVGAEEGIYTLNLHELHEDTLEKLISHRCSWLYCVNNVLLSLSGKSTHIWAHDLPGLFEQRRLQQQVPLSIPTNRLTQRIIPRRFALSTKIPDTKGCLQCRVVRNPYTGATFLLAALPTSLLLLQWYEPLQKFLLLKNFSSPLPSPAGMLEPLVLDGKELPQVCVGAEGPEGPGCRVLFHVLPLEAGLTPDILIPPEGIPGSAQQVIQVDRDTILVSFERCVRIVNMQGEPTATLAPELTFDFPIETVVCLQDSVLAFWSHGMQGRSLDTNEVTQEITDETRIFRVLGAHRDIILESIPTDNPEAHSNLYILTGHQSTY
MAP3K12 (human), sequence (Q12852 whole entry, looked up): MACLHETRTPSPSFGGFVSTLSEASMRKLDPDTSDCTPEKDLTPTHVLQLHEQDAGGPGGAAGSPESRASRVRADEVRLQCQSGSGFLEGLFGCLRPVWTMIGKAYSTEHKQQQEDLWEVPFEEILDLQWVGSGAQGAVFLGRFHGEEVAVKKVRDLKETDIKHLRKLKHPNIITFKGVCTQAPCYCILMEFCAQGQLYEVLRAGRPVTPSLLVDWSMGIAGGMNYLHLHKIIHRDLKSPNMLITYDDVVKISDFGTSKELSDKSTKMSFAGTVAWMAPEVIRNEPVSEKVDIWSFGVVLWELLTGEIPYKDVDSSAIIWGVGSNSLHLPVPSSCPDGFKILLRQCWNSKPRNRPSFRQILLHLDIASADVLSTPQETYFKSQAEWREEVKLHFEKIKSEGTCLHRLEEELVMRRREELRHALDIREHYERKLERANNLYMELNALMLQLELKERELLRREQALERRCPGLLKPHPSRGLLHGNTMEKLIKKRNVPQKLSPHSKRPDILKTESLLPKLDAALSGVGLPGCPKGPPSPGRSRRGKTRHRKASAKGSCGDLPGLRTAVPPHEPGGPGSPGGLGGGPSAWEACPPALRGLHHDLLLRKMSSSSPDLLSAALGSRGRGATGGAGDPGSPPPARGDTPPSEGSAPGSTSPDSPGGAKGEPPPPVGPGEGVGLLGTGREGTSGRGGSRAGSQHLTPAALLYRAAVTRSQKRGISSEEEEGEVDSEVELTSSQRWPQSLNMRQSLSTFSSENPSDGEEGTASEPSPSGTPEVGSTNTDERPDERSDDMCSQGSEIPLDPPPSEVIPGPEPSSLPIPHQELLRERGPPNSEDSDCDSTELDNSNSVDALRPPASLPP
ACVR1 (human), sequence (Q04771 whole entry, looked up): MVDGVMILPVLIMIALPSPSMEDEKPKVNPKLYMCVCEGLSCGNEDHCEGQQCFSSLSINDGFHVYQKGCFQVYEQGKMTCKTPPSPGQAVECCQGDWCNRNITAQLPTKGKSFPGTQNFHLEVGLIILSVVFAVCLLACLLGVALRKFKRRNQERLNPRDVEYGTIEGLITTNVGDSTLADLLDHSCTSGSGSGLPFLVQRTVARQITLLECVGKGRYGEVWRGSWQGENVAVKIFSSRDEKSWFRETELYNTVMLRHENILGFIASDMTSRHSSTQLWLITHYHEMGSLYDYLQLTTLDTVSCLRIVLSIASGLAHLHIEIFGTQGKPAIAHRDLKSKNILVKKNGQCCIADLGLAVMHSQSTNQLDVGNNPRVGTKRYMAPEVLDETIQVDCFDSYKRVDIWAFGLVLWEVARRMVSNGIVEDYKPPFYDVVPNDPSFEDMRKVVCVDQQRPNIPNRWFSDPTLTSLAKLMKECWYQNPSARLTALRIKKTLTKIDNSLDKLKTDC

| Compound | kinase still bound, per cent of control (ZAP70 (human)) [%] | kinase still bound, per cent of control [1] [%] | kinase still bound, per cent of control (RPS6KA1 KD1 (human)) [%] | kinase still bound, per cent of control (CLK4 (human)) [%] | kinase still bound, per cent of control (EPHB2 (human)) [%] | kinase still bound, per cent of control (MAP4K4 (human)) [%] | kinase still bound, per cent of control (CAMK1G (human)) [%] | kinase still bound, per cent of control (NEK3 (human)) [%] | kinase still bound, per cent of control (MAP4K2 (human)) [%] | kinase still bound, per cent of control (ACVR1 (human)) [%] | kinase still bound, per cent of control (PRKACB (human)) [%] | kinase still bound, per cent of control (CDKL3 (human)) [%] | kinase still bound, per cent of control (PI4KB (human)) [%] | kinase still bound, per cent of control (ERBB4 (human)) [%] | kinase still bound, per cent of control (RPS6KA4 KD2 (human)) [%] | kinase still bound, per cent of control (CSNK1D (human)) [%] | kinase still bound, per cent of control (MAP3K10 (human)) [%] | kinase still bound, per cent of control (CAMKK2 (human)) [%] | kinase still bound, per cent of control (PAK2 (human)) [%] | kinase still bound, per cent of control (ACVR2B (human)) [%] | other results |
| --- | --- | --- | --- | --- | --- | --- | --- | --- | --- | --- | --- | --- | --- | --- | --- | --- | --- | --- | --- | --- | --- |
| CCN1CCN(C(=O)Cc2ccc(Nc3ncc(F)c(Nc4ccc(C(=O)Nc5ccccc5Cl)cc4)n3)cc2)CC1 | 100 | 3 | 45 | 28 | 93 | 69 | 39 | 60 | 51 | 13 | 76 | 89 | 100 | 53 | 100 | 100 | 7.2 | 48 | 56 | 38 | kinase still bound, per cent of control (STK24 (human)): 32%; kinase still bound, per cent of control (MAPK9 (human)): 0.75%; kinase still bound, per cent of control (RIPK1 (human)): 96%; kinase still bound, per cent of control (LTK (human)): 32%; kinase still bound, per cent of control (MAP3K12 (human)): 71%; kinase still bound, per cent of control (MARK3 (human)): 80%; kinase still bound, per cent of control (NEK4 (human)): 63%; kinase still bound, per cent of control (STK33 (human)): 35%; kinase still bound, per cent of control (PAK3 (human)): 12%; kinase still bound, per cent of control (CDKL2 (human)): 24%; kinase still bound, per cent of control (PAK6 (human)): 65%; kinase still bound, per cent of control (CHEK2 (human)): 70%; kinase still bound, per cent of control (MLTK (human)): 2.9%; kinase still bound, per cent of control (HCK (human)): 84%; kinase still bound, per cent of control (PRKD1 (human)): 100%; kinase still bound, per cent of control (STK4 (human)): 98%; kinase still bound, per cent of control (IKBKE (human)): 100%; kinase still bound, per cent of control (IRAK3 (human)): 1.8%; kinase still bound, per cent of control (MAPK13 (human)): 100%; kinase still bound, per cent of control [2]: 22% |
| C=CC(=O)Nc1cc(-n2c(=O)ccc3cnc4ccc(-c5cn[nH]c5)cc4c32)ccc1C | 48 | 34 | 87 | 3 | 100 | 60 | 79 | 77 | 9.4 | 29 | 100 | 33 | 2.3 | 22 | 94 | 47 | 100 | 49 | 87 | 21 | kinase still bound, per cent of control (STK24 (human)): 95%; kinase still bound, per cent of control (MAPK9 (human)): 9.6%; kinase still bound, per cent of control (RIPK1 (human)): 100%; kinase still bound, per cent of control (LTK (human)): 100%; kinase still bound, per cent of control (MAP3K12 (human)): 76%; kinase still bound, per cent of control (MARK3 (human)): 100%; kinase still bound, per cent of control (NEK4 (human)): 83%; kinase still bound, per cent of control (STK33 (human)): 100%; kinase still bound, per cent of control (PAK3 (human)): 81%; kinase still bound, per cent of control (CDKL2 (human)): 17%; kinase still bound, per cent of control (PAK6 (human)): 96%; kinase still bound, per cent of control (CHEK2 (human)): 87%; kinase still bound, per cent of control (MLTK (human)): 6.9%; kinase still bound, per cent of control (HCK (human)): 100%; kinase still bound, per cent of control (PRKD1 (human)): 100%; kinase still bound, per cent of control (STK4 (human)): 83%; kinase still bound, per cent of control (IKBKE (human)): 100%; kinase still bound, per cent of control (IRAK3 (human)): 0.7%; kinase still bound, per cent of control (MAPK13 (human)): 76%; kinase still bound, per cent of control [2]: 29% |
| COc1cc2ncnc(-n3nc(-c4ccccn4)nc3N)c2cc1OC | 32 | 0.4 | 33 | 2.2 | 47 | 69 | 34 | 87 | 43 | 0.2 | 100 | 5.3 | 9.8 | 59 | 0.6 | 2.8 | 62 | 9.1 | 37 | 49 | kinase still bound, per cent of control (STK24 (human)): 56%; kinase still bound, per cent of control (MAPK9 (human)): 1.5%; kinase still bound, per cent of control (RIPK1 (human)): 86%; kinase still bound, per cent of control (LTK (human)): 24%; kinase still bound, per cent of control (MAP3K12 (human)): 52%; kinase still bound, per cent of control (MARK3 (human)): 100%; kinase still bound, per cent of control (NEK4 (human)): 41%; kinase still bound, per cent of control (STK33 (human)): 6.4%; kinase still bound, per cent of control (PAK3 (human)): 12%; kinase still bound, per cent of control (CDKL2 (human)): 2%; kinase still bound, per cent of control (PAK6 (human)): 55%; kinase still bound, per cent of control (CHEK2 (human)): 78%; kinase still bound, per cent of control (MLTK (human)): 4.5%; kinase still bound, per cent of control (HCK (human)): 12%; kinase still bound, per cent of control (PRKD1 (human)): 88%; kinase still bound, per cent of control (STK4 (human)): 61%; kinase still bound, per cent of control (IKBKE (human)): 9.6%; kinase still bound, per cent of control (IRAK3 (human)): 12%; kinase still bound, per cent of control (MAPK13 (human)): 100%; kinase still bound, per cent of control [2]: 22% |
